Measurements as given in the NIST ThermoML archive (doi:10.1021/je900653p).
Numbers after ± are expanded uncertainties.

Details: Crystal

SMILES | Normal melting temperature [°C]
CC12CCC(CC1)C(C)(C)O2 [1,3,3-trimethyl-2-oxabicyclo[2.2.2]octane] | 1.2 ± 1.2
Cc1ccc(C(C)C)cc1 [1-(1-methylethyl)-4-methylbenzene] | -68.5 ± 0.8
C=C1C2CCC(C2)C1(C)C (centres undefined) [2,2-dimethyl-3-methylenebicyclo[2.2.1]heptane] | 51.1 ± 0.8
C=C1CC[C@H]2C[C@@H]1C2(C)C [(1S,5S)-6,6-dimethyl-2-methylenebicyclo[3.1.1]heptane] | -61.5 ± 0.8
